# Measurements published in patent publication US8138220B2, “[2-(6-fluoro-1H-indol-3-ylsulfanyl)benzyl]methyl amine for the treatment of affective disorders” (H. Lundbeck A/S, priority 2006, dated 2012).
# What was measured:
# Male C57B1/6 mice = assay: Stress-induced hyperthermia; assay type: in vivo, mouse; conditions: chlordiazepoxide 10 mg/kg, one hour before
# Protocol: (§1) In all experiments, animals were maintained on a 12:12 light-dark cycle with lights on at 0600 h. Food and water were available ad libitum
# The stress-induced hyperthermia (SIH) test is based upon the principle that, like other mammals, mice have a natural hyperthermic response to stress. In this paradigm, the stressor is having the rectal temperature taken. This physiological response is considered to reflect the anxiety level of the animal, and is attenuated by pretreatment with anxiolytic drugs such as benzodiazepines.
# Male C57B1/6 mice (18-21 g) were housed 5/cage until 1 day before the experiment, at which time they were brought to the testing room and singly-housed. Testing was conducted over a two-day period from 9-12 am. Mice received vehicle, chlordiazepoxide (10 mg/kg), or 0.02, 0.08, or 0.32 mg/kg Test compound (s.c.). One hour later, core temperature was measured with a rectal probe (T1) and each animal was returned to its cage. Ten minutes later, a second reading was obtained (T2). The difference between the two readings (T2−T1) was calculated as the measure of stress-induced hyperthermia.
# Male NMRI mice = assay: Antimanic effects, sensitized amphetamine response in mice; assay type: in vivo, mouse; conditions: for induced locomotor activity: amphetamine-sensitised mice, amphetamine challenge 1.25 mg/kg; for baseline activity: tested doses, each alone
# Protocol: (§2) In all experiments, animals were maintained on a 12:12 light-dark cycle with lights on at 06:00 h. Food and water was available ad libitum. Animals were taken to the experimental laboratory in the afternoon the day before the experiment was conducted. All drug doses are listed as mg salt pr. kg. Blood-samples were collected within 30 minutes after the testing was finalised.
# Repeated intermittent administration of amphetamine causes development of a sensitised response to a subsequent amphetamine challenge. This phenomenon has been proposed to model the chronic and progressive nature of bipolar disorder.
# Animals: Male NMRI mice weighing 19-21 g were supplied from Harlan, the Netherland's. The animals were housed 4 pr. cage in makrolon cages (20×35 cm) with two plastic houses and nesting material for enrichment. The animals had 5 days adaptation to the animal-facility prior to the initiation the experiment.
# (§3) Equipment: Makrolon cages (20×35 cm) placed in quadrates equipped with 5×8 infrared light sources and photocells spaced by 4 cm were used to record the locomotor activity of the animals. The light beams cross the cage 1.8 cm above the bottom of the cage. Recording of a motility count required interruption of adjacent light beams, thus avoiding counts induced by stationary movements of the mice.
# Experimental set-up: The animals were pre-treated with either amphetamine sulphate 2.50 mg/kg (10 ml/kg s.c.) or vehicle for 5 consecutive days. After 11+/−1 days withdrawal period the animals were injected with test-drug or vehicle injection. Lithium chloride was dissolved in distilled water and injected s.c. (6 ml/kg) in dose of 40 mg/kg (0.94 mEq/kg), 30 minutes before testing. Test compound ([2-(6-fluoro-1H-indol-3-ylsulfanyl)benzyl]methyl amine L-(+)-hydrogen tatrate) was dissolved in 10% hydroxypropyl-beta-cyclodextrin and injected s.c. in doses of 0.08 and 0.4 mg/kg 60 minutes before testing. Owing to Test compound's lower affinity to rodent 5HT2A receptor with respect to the human receptor, the tested doses of Test compound was combined with a dose of MDL 100907 ([R-(+)-a-(2,3-dimethoxyphenyl)-1-[2-(4-fluorophenylethyl)]-4-piperidinem ethanol]) that achieves full occupancy of this receptor. 30 minutes before testing the animals were placed in the activity boxes for habituation. After the habituation period the mice were injected with a low dose amphetamine challenge (1.25 mg/kg or saline, 10 ml/kg) and the locomotor activity were measured for 60 minutes. The mice were dosed after the average weight of 16 animals.
# Male Wistar rats = assay: Antimanic effect, amphetamine and chlordiazepoxide induced locomotor activity in rats; assay type: in vivo, rat; conditions: for induced locomotor activity: amphetamine 1.2 mg/kg + chlordiazepoxide 10.0 mg/kg; for baseline activity: tested doses
# Protocol: Increased locomotor activity induced by an appropriate combination of amphetamine and chlordiazepoxide is a proposed animal model of mania. The induced locomotor activity can be reversed by Lithium.
# as §2
# Animals: Male Wistar rats weighing 160-175 g were supplied from Harlan, the Netherlands. The animals were housed 4 pr. cage in makrolon cages (20×35 cm) with one plastic house for enrichment. The rats had 5 days adaptation to the animal facility prior to the initiation of the experiment.
# as §3, with “a U-frame” for “quadrates”, “equipped longitudinally” for “equipped”, “4” for “5×8”, “photocells” for “photocells spaced by 4 cm”, “4” for “1.8”, “rat. A thin layer of standard bedding material coved the bottom of the cage.” for “mice.”
# Chlordiazepoxide (10.0 mg/kg) was dissolved in 10% hydroxypropyl-beta-cyclodextrin and injected s.c. (5 ml/kg) immediately after the amphetamine injection.
# Solubility in water = assay type: physicochemical; conditions: well-defined 1:1 salts, in words
# Male BALB/cByJ mice = assay: Mouse marble burying; assay type: in vivo; conditions: mice, 0.625, 1.25 and 5 mg/kg s.c., 30 min before 30-minute test
# Protocol: as §1
# For rodents, burying functions as a defensive behavior, used to lessen the intensity of a threat or the animal's vulnerability to it. Researchers have investigated defensive burying behaviour using a variety of threatening objects such as electrified prods and unpleasant tasting foods and liquids. Benign objects such as marbles and food pellets also elicit burying behaviour. Mice probably bury harmless objects because they are novel, and are therefore perceived as threatening. Acute administration of both anxiolytic and antidepressant drugs reduce the number of marbles buried in this paradigm.
# Male BALB/cByJ mice (22-28 g) were housed 5/cage. Two experiments were performed. Mice received vehicle or 0.625, 1.25, or 5 mg/kg (s.c.) Test compound (see example 12). 30 minutes after injection, animals were placed individually in cages containing 20 marbles (2 rows of 10) on top of 1.5 inches of Aspen bedding. After a 30-minute test period, mice were returned to their home cages, and the number of visible marbles (less than ⅔ covered with bedding) were counted and subtracted from 20 to give number of marbles buried.
compound,measurement,setting,value
"CNC1=Nc2ccc(Cl)cc2C(c2ccccc2)=[N+]([O-])C1 [CDP, chlordiazepoxide, reference compound]",stress-induced hyperthermia (T2−T1),Male C57B1/6 mice,significantly reduced
"COc1cccc([C@H](O)C2CCN(CCc3ccc(F)cc3)CC2)c1OC [MDL 100907, [R-(+)-a-(2,3-dimethoxyphenyl)-1-[2-(4-fluorophenylethyl)]-4-piperidinemethanol], reference compound]",induced locomotor activity,Male NMRI mice; MDL 100907 0.3 mg/kg,significantly decreased
same,baseline activity,Male NMRI mice; mice,no significant effect
same,induced locomotor activity,Male Wistar rats; MDL 100907 0.3 mg/kg,significantly reversed
same,baseline activity,Male Wistar rats,no effect
CNCc1ccccc1Sc1c[nH]c2cc(F)ccc12.O=C(O)C(O)C(O)C(=O)O [beta form of the L(+) hydrogen tartrate salt] [[2-(6-Fluoro-1H-indol-3-ylsulfanyl)-benzyl]-methyl-amine L-(+)-hydrogen tartrate],water absorbed when exposed to high relative humidity,,about 0.6%
CC(C)(O)C(=O)O [2-hydroxy isobutyric acid],solubility,Solubility in water,relatively high solubility
CNCc1ccccc1Sc1c[nH]c2cc(F)ccc12.O=C(O)C(O)C(O)C(=O)O [alpha form of the L(+) hydrogen tartrate salt] [[2-(6-Fluoro-1H-indol-3-ylsulfanyl)-benzyl]-methyl-amine L-(+)-hydrogen tartrate],water absorbed when exposed to high relative humidity,,< 0.1%
"CNCc1ccccc1Sc1c[nH]c2cc(F)ccc12.O=C(O)C(O)C(O)C(=O)O [Test compound, [2-(6-fluoro-1H-indol-3-ylsulfanyl)benzyl]methyl amine L-(+)-hydrogen tatrate]",induced locomotor activity,Male NMRI mice; Test compound 0.08 mg/kg and 0.4 mg/kg s.c. alone,no effect
same,baseline activity in saline pre-treated animals,"Male NMRI mice; mice, Test compound 0.08 and 0.4 mg/kg combined with MDL 100907 0.3 mg/kg",significantly lowered
same,baseline activity,Male NMRI mice; mice,no significant effect
same,numbers of marbles buried,Male BALB/cByJ mice,significantly and equivalently reduced
same,induced locomotor activity,Male Wistar rats; Test compound 0.4 mg/kg combined with MDL 100907 0.3 mg/kg,significant attenuation
same,induced locomotor activity,Male Wistar rats; Test compound 0.4 mg/kg s.c. alone,"tendency to increase the locomotor activity induced activity, but not significantly"
same,baseline activity,Male Wistar rats,no effect
